Source: patent publication US20260132140A1, “IMIDAZOLYL-AMINO-PYRAZINE-CARBONITRILS AS CHK-1 INHIBITORS” (BenevolentAI Bio Limited, priority 2022, published 2026)

How the values were obtained:
[1] = target: T1, human Chk1 kinase (Homo sapiens, UniProt O14757); test: biochemical
T1 sequence (O14757 1-476): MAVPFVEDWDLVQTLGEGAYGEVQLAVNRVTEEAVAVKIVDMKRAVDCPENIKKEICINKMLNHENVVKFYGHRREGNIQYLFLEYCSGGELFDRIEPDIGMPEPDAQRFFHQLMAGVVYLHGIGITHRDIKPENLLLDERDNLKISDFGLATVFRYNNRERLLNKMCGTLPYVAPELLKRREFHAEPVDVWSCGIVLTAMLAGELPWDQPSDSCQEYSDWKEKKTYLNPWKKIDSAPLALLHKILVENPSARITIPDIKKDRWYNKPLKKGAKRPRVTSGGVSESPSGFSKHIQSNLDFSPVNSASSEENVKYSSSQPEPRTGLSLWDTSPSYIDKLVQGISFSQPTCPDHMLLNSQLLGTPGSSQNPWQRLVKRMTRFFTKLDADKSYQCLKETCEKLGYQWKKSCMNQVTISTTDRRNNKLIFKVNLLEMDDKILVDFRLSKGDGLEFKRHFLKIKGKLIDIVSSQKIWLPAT

[2] = target: human Chk2 kinase (Homo sapiens, UniProt O96017); test: biochemical
Chain of human Chk2 kinase (O96017 whole entry): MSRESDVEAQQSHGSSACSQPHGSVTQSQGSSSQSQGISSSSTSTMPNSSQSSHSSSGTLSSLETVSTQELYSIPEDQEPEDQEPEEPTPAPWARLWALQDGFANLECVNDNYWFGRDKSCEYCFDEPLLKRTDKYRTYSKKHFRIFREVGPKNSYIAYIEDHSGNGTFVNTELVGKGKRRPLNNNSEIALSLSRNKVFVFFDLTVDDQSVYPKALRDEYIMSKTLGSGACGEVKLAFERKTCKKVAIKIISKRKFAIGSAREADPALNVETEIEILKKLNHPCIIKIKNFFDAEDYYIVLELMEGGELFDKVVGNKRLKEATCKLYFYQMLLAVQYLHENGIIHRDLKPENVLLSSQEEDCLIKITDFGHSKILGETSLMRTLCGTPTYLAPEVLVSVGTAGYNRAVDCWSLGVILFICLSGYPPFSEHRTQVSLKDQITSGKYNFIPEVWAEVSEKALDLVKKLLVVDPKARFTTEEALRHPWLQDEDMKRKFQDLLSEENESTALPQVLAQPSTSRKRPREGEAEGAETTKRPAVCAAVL

Structure (SMILES) | IC50 [1] | IC50 [2]
CN1CCC(Nc2ccc(-n3cnc(Nc4cnc(C#N)cn4)c3)cc2)CC1 [Example 26, 5-((1-(4-((1-Methylpiperidin-4-yl)amino)phenyl)-1H-imidazol-4-yl)amino)pyrazine-2-carbonitrile] | 10 to 31.6 nM | 10000 to 100000 nM
CC(C)C1CN(C2CCN(c3ccc(-n4cnc(Nc5cnc(C#N)cn5)c4)cc3)C2)C1 (single isomer, unassigned) [Example 134, 5-((1-(4-(3-(3-Isopropylazetidin-1-yl)pyrrolidin-1-yl)phenyl)-1H-imidazol-4-yl)amino)pyrazine-2-carbonitrile] | 10 to 31.6 nM | > 100000 nM
CN1CCC2(CC1)CCN(c1cccc(-n3cnc(Nc4cnc(C#N)cn4)c3)c1)C2 [Example 39, 5-((1-(3-(8-Methyl-2,8-diazaspiro[4.5]decan-2-yl)phenyl)-1H-imidazol-4-yl)amino)pyrazine-2-carbonitrile] | 10 to 31.6 nM | 10000 to 100000 nM
CCN[C@H]1CN(c2ccc(-n3cnc(Nc4cnc(C#N)cn4)c3)cc2)C[C@H]1F [Example 88, 5-((1-(4-((3S,4R)-3-(Ethylamino)-4-fluoropyrrolidin-1-yl)phenyl)-1H-imidazol-4-yl)amino)pyrazine-2-carbonitrile] | 10 to 31.6 nM | 1000 to 10000 nM
CN1C[C@H]2C[C@@H]1CN2c1ccc(-n2cnc(Nc3cnc(C#N)cn3)c2)cc1 [Example 9, 5-((1-(4-((1R,4R)-5-Methyl-2,5-diazabicyclo[2.2.1]heptan-2-yl)phenyl)-1H-imidazol-4-yl)amino)pyrazine-2-carbonitrile] | 10 to 31.6 nM | 10000 to 100000 nM
N#Cc1cnc(Nc2cn(-c3ccc(N4CCN(C5COC5)CC4)cc3)cn2)cn1 [Example 182, 5-((1-(4-(4-(Oxetan-3-yl)piperazin-1-yl)phenyl)-1H-imidazol-4-yl)amino)pyrazine-2-carbonitrile] | 31.6 to 100 nM | 10000 to 100000 nM
CCN1CCN(c2ccc(-n3cnc(Nc4cnc(C#N)cn4)c3)c(OC)c2)CC1 [Example 27, 5-((1-(4-(4-Ethylpiperazin-1-yl)-2-methoxyphenyl)-1H-imidazol-4-yl)amino)pyrazine-2-carbonitrile] | < 10 nM | 1000 to 10000 nM
CCN1CCC(Nc2ccc(-n3cnc(Nc4cnc(C#N)cn4)c3)c(OC)c2)CC1 [Example 41, 5-((1-(4-((1-Ethylpiperidin-4-yl)amino)-2-methoxyphenyl)-1H-imidazol-4-yl)amino)pyrazine-2-carbonitrile] | 10 to 31.6 nM | 10000 to 100000 nM
COc1cc(N2C[C@H]3C[C@@H]2CN3C)ccc1-n1cnc(Nc2cnc(C#N)cn2)c1 [Example 44, 5-((1-(2-Methoxy-4-((1R,4R)-5-methyl-2,5-diazabicyclo[2.2.1]heptan-2-yl)phenyl)-1H-imidazol-4-yl)amino)pyrazine-2-carbonitrile] | 10 to 31.6 nM | 10000 to 100000 nM
CN1CC[C@@H](N(C)c2ccc(-n3cnc(Nc4cnc(C#N)cn4)c3)cc2)C1 [Example 94, (R)-5-((1-(4-(Methyl(1-methylpyrrolidin-3-yl)amino)phenyl)-1H-imidazol-4-yl)amino)pyrazine-2-carbonitrile] | 31.6 to 100 nM | 10000 to 100000 nM
CN1CC[C@@H]2[C@H]1CCN2c1ccc(-n2cnc(Nc3cnc(C#N)cn3)c2)cc1 [Example 91, 5-((1-(4-((3aR,6aR)-4-Methylhexahydropyrrolo[3,2-b]pyrrol-1(2H)-yl)phenyl)-1H-imidazol-4-yl)amino)pyrazine-2-carbonitrile] | 10 to 31.6 nM | 10000 to 100000 nM
CC1(C)CCN1C1CCN(c2ccc(-n3cnc(Nc4cnc(C#N)cn4)c3)cc2)C1 (single isomer, unassigned) [Example 140, 5-((1-(4-(3-(2,2-Dimethylazetidin-1-yl)pyrrolidin-1-yl)phenyl)-1H-imidazol-4-yl)amino)pyrazine-2-carbonitrile] | < 10 nM | 1000 to 10000 nM
Cc1ccc(-n2cnc(Nc3cnc(C#N)cn3)c2)cc1N1CC[C@@H](N(C)C)C1 [Example 58, (R)-5-((1-(3-(3-(Dimethylamino)pyrrolidin-1-yl)-4-methylphenyl)-1H-imidazol-4-yl)amino)pyrazine-2-carbonitrile] | 31.6 to 100 nM | 10000 to 100000 nM
CN(C)[C@H]1CN(c2ccc(-n3cnc(Nc4cnc(C#N)cn4)c3)cc2)C[C@@H]1F [Example 63, 5-((1-(4-((3S,4S)-3-(Dimethylamino)-4-fluoropyrrolidin-1-yl)phenyl)-1H-imidazol-4-yl)amino)pyrazine-2-carbonitrile] | < 10 nM | 1000 to 10000 nM
COc1cc(N2CC[C@@H](N3CCCC3)C2)ccc1-n1cnc(Nc2cnc(C#N)cn2)c1 [Example 51, (R)-5-((1-(4-([1,3′-Bipyrrolidin]-1′-yl)-2-methoxyphenyl)-1H-imidazol-4-yl)amino)pyrazine-2-carbonitrile] | < 10 nM | 1000 to 10000 nM
CCN(CC)C1(c2ccc(-n3cnc(Nc4cnc(C#N)cn4)c3)cc2)CC1 [Example 179, 5-((1-(4-(1-(Diethylamino)cyclopropyl)phenyl)-1H-imidazol-4-yl)amino)pyrazine-2-carbonitrile] | 100 to 316 nM | > 100000 nM
N#Cc1cnc(Nc2cn(-c3ccc(CN4CC[C@@H](F)C4)cc3F)cn2)cn1 [Example 6, (R)-5-((1-(2-Fluoro-4-((3-fluoropyrrolidin-1-yl)methyl)phenyl)-1H-imidazol-4-yl)amino)pyrazine-2-carbonitrile] | 100 to 316 nM | > 100000 nM
N#Cc1cnc(Nc2cn(-c3ccc(N4CC[C@@H](NCCC(F)(F)F)C4)cn3)cn2)cn1 [Example 93, (R)-5-((1-(5-(3-((3,3,3-Trifluoropropyl)amino)pyrrolidin-1-yl)pyridin-2-yl)-1H-imidazol-4-yl)amino)pyrazine-2-carbonitrile] | 10 to 31.6 nM | > 100000 nM
CN1CCN(c2ccc(-n3cnc(Nc4cnc(C#N)cn4)c3)cc2F)CC1 [Example 21, 5-((1-(3-Fluoro-4-(4-methylpiperazin-1-yl)phenyl)-1H-imidazol-4-yl)amino)pyrazine-2-carbonitrile] | 31.6 to 100 nM | 10000 to 100000 nM
CN1CCN(c2ccc(-n3cnc(Nc4cnc(C#N)cn4)c3)nc2)CC1 [Example 18, 5-((1-(5-(4-Methylpiperazin-1-yl)pyridin-2-yl)-1H-imidazol-4-yl)amino)pyrazine-2-carbonitrile] | 10 to 31.6 nM | 1000 to 10000 nM
CN1C[C@@H]2CN(c3ccc(-n4cnc(Nc5cnc(C#N)cn5)c4)c(F)c3)[C@@H]2C1 [Example 80, 5-((1-(2-Fluoro-4-((1R,5S)-3-methyl-3,6-diazabicyclo[3.2.0]heptan-6-yl)phenyl)-1H-imidazol-4-yl)amino)pyrazine-2-carbonitrile] | 31.6 to 100 nM | 10000 to 100000 nM
COc1cc(N2CCN3CCC[C@H]3C2)ccc1-n1cnc(Nc2cnc(C#N)cn2)c1 [Example 30, (S)-5-((1-(4-(Hexahydropyrrolo[1,2-a]pyrazin-2(1H)-yl)-2-methoxyphenyl)-1H-imidazol-4-yl)amino)pyrazine-2-carbonitrile] | < 10 nM | 10000 to 100000 nM
CN1[C@@H]2COC[C@H]1CN(c1ccc(-n3cnc(Nc4cnc(C#N)cn4)c3)cc1)C2 [Example 177, 5-((1-(4-((1R,5S)-9-Methyl-3-oxa-7,9-diazabicyclo[3.3.1]nonan-7-yl)phenyl)-1H-imidazol-4-yl)amino)pyrazine-2-carbonitrile] | 100 to 316 nM | 10000 to 100000 nM
COc1cc(N(C)C2CCN(C)CC2)ccc1-n1cnc(Nc2cnc(C#N)cn2)c1 [Example 14, 5-((1-(2-Methoxy-4-(methyl(1-methylpiperidin-4-yl)amino)phenyl)-1H-imidazol-4-yl)amino)pyrazine-2-carbonitrile] | 10 to 31.6 nM | 10000 to 100000 nM
CC(C)C1CN(C2CCN(c3ccc(-n4cnc(Nc5cnc(C#N)cn5)c4)cc3)C2)C1 (single isomer, unassigned) [Example 133, 5-((1-(4-(3-(3-Isopropylazetidin-1-yl)pyrrolidin-1-yl)phenyl)-1H-imidazol-4-yl)amino)pyrazine-2-carbonitrile] | < 10 nM | 10000 to 100000 nM
Cc1cc(-n2cnc(Nc3cnc(C#N)cn3)c2)ccc1N1CCN(C)CC1 [Example 28, 5-((1-(3-Methyl-4-(4-methylpiperazin-1-yl)phenyl)-1H-imidazol-4-yl)amino)pyrazine-2-carbonitrile] | 10 to 31.6 nM | 10000 to 100000 nM
N#Cc1cnc(Nc2cn(-c3cccc(N4CCN5CCC[C@H]5C4)c3)cn2)cn1 [Example 35, (S)-5-((1-(3-(Hexahydropyrrolo[1,2-a]pyrazin-2(1H)-yl)phenyl)-1H-imidazol-4-yl)amino)pyrazine-2-carbonitrile] | 31.6 to 100 nM | > 100000 nM
CN1C[C@@H]2CN(c3ccc(-n4cnc(Nc5cnc(C#N)cn5)c4)cc3)C[C@@H]2C1 [Example 101, 5-((1-(4-((3aR,6aS)-5-Methylhexahydropyrrolo[3,4-c]pyrrol-2(1H)-yl)phenyl)-1H-imidazol-4-yl)amino)pyrazine-2-carbonitrile] | < 10 nM | 10000 to 100000 nM
N#Cc1cnc(Nc2cn(-c3ccc(CN4CC[C@@H](F)C4)c(Cl)c3)cn2)cn1 [Example 2, (R)-5-((1-(3-Chloro-4-((3-fluoropyrrolidin-1-yl)methyl)phenyl)-1H-imidazol-4-yl)amino)pyrazine-2-carbonitrile] | 316 to 1000 nM | > 100000 nM
